Data taken from patent publication US7888357B2, “Anti-inflammatory and protein kinase inhibitor compositions and related methods for downregulation of detrimental cellular responses and inhibition of cell death” (Northwestern University, priority 2001, dated 2011).

Test system: BV-2 cells
Test: Western blot of transcription factor and kinase phosphorylation in LPS-treated BV-2 cells
Type: cell-based, murine
Conditions: compound 10 μM
Experimental: FIG. 2. Selective effects of compound 1 (MW01-070C) on glial activation responses and gene-regulating protein kinase pathways. BV-2 cells and rat astrocytes were treated with control buffer (C) or stimulated with LPS or Aβ1-42 peptide in the presence or absence of compound 1, and cell lysates were analyzed by Western blots. (A) Astrocytes treated with LPS and compound 1 show concentration-dependent inhibition of iNOS and IL-1β production but not GFAP. (B) Astrocytes treated with A β1-42 and compound 1 (10 μM) show inhibition of iNOS and IL-1β but not apoE and COX-2. (C) BV-2 cells treated with LPS and compound 1 (10 μM) show inhibition of phosphorylated (p-) CREB but not p-p38 and p-ATF2, as assayed with antibodies that are specific for the phosphorylated forms of the proteins. Data are expressed as percent control (mean±SD; n=3 determinations).
FIG. 7. Effects of MW01-070C on phosphorylation of transcription factors and an upstream activating kinase. BV-2 cells were incubated for 4 hr with control buffer (lane 1), 500 ng/ml LPS (lane 2), or […] LPS+10 μM MW01-070C (lane 3). The levels of phosphorylated (p-) ATF2, p38, and CREB were determined by Western blot of cell lysates, using antibodies that are specific for the phosphorylated forms of these proteins.
For analysis of transcription factor phosphorylation, BV-2 cells were plated at 2×10^5 cells/well in a 12-well tissue culture plate, and grown for 48 hrs in αMEM containing 10% FBS. Immediately before treatment, media was removed, cells were rinsed with PBS, and media changed to serum-free αMEM. Cells were then treated for 4 hrs with control buffer or LPS (500 ng/ml) in the presence or absence of MW01-070C (10 μM), and cell lysates harvested for Western blot analysis.
Cell lysates were prepared and Western blots were done as previously described [Petrova, T. V., Akama, K. T., and Van Eldik, L. J. (1999) Proc Natl Acad Sci USA 96, 4668-4673] using equal volumes of cell extracts per gel lane. The following antibodies were used: monoclonal anti-iNOS (1:1000 dilution, Transduction Labs); polyclonal anti-rat IL-1β (1:1000 dilution, R&D Systems, Inc.); monoclonal anti-glial fibrillary acidic protein (GFAP) (1:[…] dilution, Sigma); polyclonal anti-rat apoE (1:15,000 dilution) prepared as described [LaDu, M. J., Shah, J. A., Reardon, K., Getz, G. S., Bu, G., Hu, J., Guo, L., and Van Eldik, L. J. (2000) J. Biol. Chem. 275, 33974-33980]; polyclonal anti-COX-2 (1:500 dilution) and monoclonal anti-phosphoATF2 (1:1000 dilution) from Santa Cruz Biotechnology; polyclonal anti-phosphoCREB (1:1000 dilution), polyclonal anti-phosphop38 MAPK (1:1000 dilution), polyclonal anti-phosphop90RSK (1:1000 dilution), and monoclonal anti-phosphoERK1/2 (1:1000 dilution) from Cell Signaling.

Q: Which results are given for `N=c1cc2c(nn1CCCCCCCCCCC(=O)N1CCN(c3ncccn3)CC1)-c1ccccc1CC2` [MW01-070C]?
A: phosphorylated ATF2: does not inhibit; phosphorylated p38 MAPK: not blocked; phosphorylation of CREB: inhibited; phosphorylated p38 MAPK (listed as 1): does not inhibit; phosphorylation of CREB (listed as 1): inhibits
